Reference: patent US20260001914A1, “MACROCYCLIC PEPTIDES TARGETING KRAS” (Merck Sharp & Dohme LLC, priority 2022, published 2026)
*1 amine or outer side, *2 acyl side, *3 side chain or, on linkers, in order; H or OH if unused. Where a SMILES comes first, the peptide text is derived from it. Bridges are numbered along the chain shown (N, C = ends). [ ]: non-standard residue; d: D form. Ala(pyrimidin-5-yl) = N[C@@H](Cc1cncnc1)C(=O)O; Lys(N3) = [N-]=[N+]=NCCCC[C@H](N)C(=O)O; X46 = O=C([C@H](Cc1cccnc1F)N[*:1])[*:2]; X21 = O=C([C@@H]1C[C@H]1CN[*:1])[*:2]; Phe(2-F) = N[C@@H](Cc1ccccc1F)C(=O)O; X31 = O=C([C@H](CCC1CC1)N[*:1])[*:2]; NMe3Pal = CN[C@@H](Cc1cccnc1)C(=O)O; X1 = O=C(C12CC(CN[*:1])(C1)C2)[*:2]; X41 = COCCC[C@H](N[*:1])C(=O)[*:2]; Aha = [N-]=[N+]=NCC[C@H](N)C(=O)O; NMeR = CN[C@@H](CCCNC(=N)N)C(=O)O; Ala(cPr) = N[C@@H](CC1CC1)C(=O)O; NMeF = CN[C@@H](Cc1ccccc1)C(=O)O; PhLac = O=C(O)[C@@H](O)Cc1ccccc1; 3Pal = N[C@@H](Cc1cccnc1)C(=O)O; Cba = N[C@@H](CC1CCC1)C(=O)O; αMeC = C[C@](N)(CS)C(=O)O; NMeA = CN[C@@H](C)C(=O)O; Nle = CCCC[C@H](N)C(=O)O; Nva = CCC[C@H](N)C(=O)O

These molecules were tested against phosphorylation levels of ERK1/2 in AsPC-1 (homozygous KRAS-G12D) cells (Homo sapiens, UniProt P01116, G12D) (assay: Cellular phospho-ERK assay in AsPC-1 cells (Alpha Screen), assay medium without fetal bovine serum). Settings: phospho-ERK AlphaScreen, 18 h.
Chain of phosphorylation levels of ERK1/2 in AsPC-1 (homozygous KRAS-G12D) cells (P01116 1-186 G12D): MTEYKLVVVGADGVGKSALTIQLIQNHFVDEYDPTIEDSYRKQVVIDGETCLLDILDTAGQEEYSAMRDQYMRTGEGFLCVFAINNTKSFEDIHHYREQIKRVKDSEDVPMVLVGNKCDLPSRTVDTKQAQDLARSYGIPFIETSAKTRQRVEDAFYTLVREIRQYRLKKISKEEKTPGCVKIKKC
Format: cell-based
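Also: signal taken as phospho-ERK over total ERK per well, both detected in one multiplex bead assay, EC50 from four-parameter logistic fit of dose-response curves.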

Row | SMILES | EC50 [µM]
1 | C[C@H]1C(=O)N[C@@H](Cc2cncnc2)C(=O)N[C@@H](CC2CC2)C(=O)N[C@@H](Cc2ccccc2F)C(=O)NC2CC/C=C\CC[C@@H](C(=O)NCC34CC(C3)(C4)C(=O)O[C@@H](Cc3ccccc3)C(=O)N1C)N(C)C2=O [SEQ ID NO: 182, cyclo(FLac-NMeA-PyrimAla-cPrA-Phe2F-Hag-NMeHag-amBCP)] | 41.2
2 | CCCC[C@@H]1NC(=O)[C@H](CCCOC)NC(=O)[C@H](CC2CCC2)NC(=O)[C@H](Cc2cccnc2)NC(=O)[C@H](CCCNC(=N)N)NC(=O)[C@H](Cc2ccccc2)NC(=O)CSC[C@@](C)(C(N)=O)NC(=O)[C@H](Cc2ccccc2)N(C)C1=O [compound 55, cyclo(F-R-3Pal-cBuA-NvaOMe-Nle-NMeF-aMeCl-ClAc)] ({CH2CO}-FR[3Pal][Cba][X41][Nle][NMeF][αMeC]-NH2; thioether N-8) | > 50.8
3 | CCCC[C@@H]1NC(=O)[C@H](Cc2cccnc2)NC(=O)[C@H](CCCNC(=N)N)N(C)C(=O)[C@H](Cc2ccccc2)NC(=O)[C@@H]2C[C@H]2CNC(=O)[C@H](Cc2ccccc2)N(C)C(=O)[C@H](CCCCN=[N+]=[N-])NC(=O)[C@H](Cc2ccc(OC)cc2)NC1=O [compound 94, cyclo(F-NMeR-3Pal-Nle-TyrOMe-LysN3-NMeF-tamcPr)] (cyclo(F[NMeR][3Pal][Nle]Y(Me)[Lys(N3)][NMeF][X21])) | > 50.8
4 | CCCC[C@@H]1NC(=O)[C@H](C(C)C)NC(=O)[C@H](CC2CCC2)NC(=O)[C@H](Cc2cccnc2)NC(=O)[C@H](CCN=[N+]=[N-])NC(=O)[C@H](Cc2ccccc2)NC(=O)C23CC(CNC(=O)[C@H](Cc4cccnc4)N(C)C1=O)(C2)C3 [compound 113, cyclo(F-DabN3~3Pal-cBuA-V-Nle-NMe3Pal-amBCP)] (cyclo(F[Aha][3Pal][Cba]V[Nle][NMe3Pal][X1])) | > 50.8
5 | C[C@H]1C(=O)N[C@@H](Cc2cncnc2)C(=O)N[C@@H](CC2CC2)C(=O)N[C@@H](Cc2ccccc2F)C(=O)N[C@@H](CCC2CC2)C(=O)N(C)[C@@H](Cc2ccccc2)C(=O)NCC23CC(C2)(C3)C(=O)O[C@@H](Cc2ccccc2)C(=O)N1C [compound 114, cyclo(FLac-NMeA-PyrimAla-cPrA-Phe2F-hcPrA-NMeF-amBCP)] (cyclo([Ala(cPr)][Phe(2-F)][X31][NMeF][X1][PhLac][NMeA][Ala(pyrimidin-5-yl)])) | 0.615
6 | C[C@H]1C(=O)N[C@@H](Cc2cncnc2)C(=O)N[C@@H](CC2CCC2)C(=O)N[C@@H](Cc2ccccc2F)C(=O)N[C@@H](CCC2CC2)C(=O)N(C)[C@@H](Cc2ccccc2)C(=O)NCC23CC(C2)(C3)C(=O)O[C@@H](Cc2ccccc2)C(=O)N1C [compound 115, cyclo(FLac-NMeA-PyrimAla-cBuA-Phe2F-hcPrA-NMeF-amBCP)] (cyclo([Cba][Phe(2-F)][X31][NMeF][X1][PhLac][NMeA][Ala(pyrimidin-5-yl)])) | 0.437
7 | CCCC[C@@H]1NC(=O)[C@H](Cc2cccnc2)NC(=O)[C@H](C)N(C)C(=O)[C@H](Cc2ccccc2)OC(=O)C23CC(CNC(=O)[C@H](Cc4cccnc4)N(C)C(=O)[C@H](CCC)NC(=O)[C@H](Cc4ccccc4F)NC1=O)(C2)C3 [compound 116, cyclo(FLac-NMeA-3Pal-Nle-Phe2F-Nva-NMe3Pal-amBCP)] (cyclo([3Pal][Nle][Phe(2-F)][Nva][NMe3Pal][X1][PhLac][NMeA])) | > 50.8
8 | CCCC[C@@H]1NC(=O)[C@H](Cc2cccnc2F)NC(=O)[C@H](C)N(C)C(=O)[C@H](Cc2ccccc2)OC(=O)C23CC(CNC(=O)[C@H](Cc4cccnc4)N(C)C(=O)[C@H](CCCC)NC(=O)[C@H](Cc4ccccc4F)NC1=O)(C2)C3 [compound 117, cyclo(FLac-NMeA~3Pal2F-Nle-Phe2F-Nle-NMe3Pal-amBCP)] (cyclo([NMe3Pal][X1][PhLac][NMeA][X46][Nle][Phe(2-F)][Nle])) | 50.2
